Measurements: patent US20240262830A1, “IRE1A MODULATORS AND USES THEREOF” (Nimbus Iaso, Inc., priority 2020, published 2024)

Assays:
[1] = molecular target: T1, truncated human IRE1a WT protein, containing the catalytic part (aa 547-977) (Homo sapiens, UniProt O75460); assay: IRE1a biochemical enzyme splice assay; details: 20 nM protein, 500 nM fluorescently quenched IRE1a substrate, 40 min at room temperature; read-out: EnzymeSplice_hIRE1a_IC50 (IC50)
T1 construct: containing the catalytic part (aa 547-977); made in house
Procedure: A truncated human IRE1a WT protein, containing the catalytic part (aa 547-977) was expressed in baculovirus. The purified protein (20 nM) was incubated with a fluorescently quenched IRE1a substrate (500 nM; 5′/6-FAM-CAGUCCGCAGCACUG-BHQ-1/3′) and a titration of inhibitor, starting at 10 μM (final DMSO concentration=1%) for 40 min at room temperature in assay buffer. Reactions were carried out in a final volume of […] in a 384 well assay plate. The reaction was stopped, and the plate was spun for 1 minute at 1000 rpm. The fluorescence intensity of the IRE1a-substrate was measured using an fluorescent plate reader (Ex 485 nm/Em 535 nm, Perkin Elmer Envision).

hIRE1a = assay: XBP1-Luc cell assay; format: cell-based; details: Homo sapiens; HEK293-pLVX-XBP1.fluc-IRES-Puro cells, 600 nM Thapsigargin 1 hour, then inhibitor 6 hours; read-out: fLuc_XBP1_hIRE1a_HEK293_IC50 (IC50)
Procedure: HEK293-pLVX-XBP1.fluc-IRES-Puro cells (ChemPartner) were collected into DMEM (Invitrogen, 11995-065) with 10% FBS (BI, 04-002-1A). Cells were seeded at 1.5E4 cells/well in BioCoat Poly-D-Lysine Black/Clear flat bottom 96 well plate (Corning, 356640) and incubated overnight at 37° C. and 5% CO2. Cells were treated with 600 nM Thapsigargin (Sigma, T9033) for 1 hour at 37° C. and 5% CO2 prior to inhibitor addition. A titration of inhibitor, starting at 30 μM was added to wells for an additional 6 hours at 37° C. and 5% CO2. 100 μl of Steady-Glo Luciferase assay reagent (Promega, E2550) was added to plate and the plate was shaken for 2 minutes. Signal was read using EnSpire (Perkin Elmer).

T1 sequence (O75460 547-977): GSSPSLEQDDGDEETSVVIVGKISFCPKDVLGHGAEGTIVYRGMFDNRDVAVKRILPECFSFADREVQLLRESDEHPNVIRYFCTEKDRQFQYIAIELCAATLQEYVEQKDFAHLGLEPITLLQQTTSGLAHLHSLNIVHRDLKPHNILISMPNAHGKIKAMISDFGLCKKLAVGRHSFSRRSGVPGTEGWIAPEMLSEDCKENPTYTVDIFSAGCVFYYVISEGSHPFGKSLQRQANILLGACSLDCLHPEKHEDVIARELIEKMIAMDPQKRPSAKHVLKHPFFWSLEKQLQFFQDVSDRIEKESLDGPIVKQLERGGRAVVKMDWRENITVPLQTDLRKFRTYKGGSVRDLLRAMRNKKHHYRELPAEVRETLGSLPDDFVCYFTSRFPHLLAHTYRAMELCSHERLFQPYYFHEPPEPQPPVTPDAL

**Q.** `CCc1cc(-c2ccc3c(NC(=O)NC4CC4)ncnn23)cc2cnc(NC3CCCNC3)nc12` (stereo in doubt) [Compound I-24, 3-cyclopropyl-1-(7-{8-ethyl-2-[(3R)-piperidin-3-ylamino]quinazolin-6-yl}pyrrolo[2,1-f][1,2,4]triazin-4-yl)urea] was tested. Which IC50 [1] did it give?
**A.** 0.1 to 1 µM

**Q.** And the IC50 (hIRE1a)?
**A.** < 1 µM

**Q.** For `CCc1cc(-c2ccc3c(NS(=O)(=O)c4ccccc4F)ncnn23)cc2cnc(N[C@H]3CCCNC3)nc12` [Compound I-1, (S)—N-(7-(8-ethyl-2-(piperidin-3-ylamino)quinazolin-6-yl)pyrrolo[2,1-f][1,2,4]triazin-4-yl)-2-fluorobenzenesulfonamide], which IC50 [1] is on record?
**A.** < 0.1 µM

**Q.** And the IC50 (hIRE1a)?
**A.** < 1 µM

**Q.** With `CCc1cc(-c2ccc3c(NS(=O)(=O)c4ccccc4C)ncnn23)cc2cnc(N[C@H]3CCCNC3)nc12` [Compound I-2, (S)—N-(7-(8-ethyl-2-(piperidin-3-ylamino)quinazolin-6-yl)pyrrolo[2,1-f][1,2,4]triazin-4-yl)-2-methylbenzenesulfonamide] as the molecule, how does the IC50 [1] read?
**A.** < 0.1 µM

**Q.** What about the IC50 (hIRE1a) of the same molecule?
**A.** < 1 µM

**Q.** Which IC50 [1] does the source give for `CCc1cc(-c2ccc3c(NS(=O)(=O)C4CCCCC4)ncnn23)cc2cnc(N[C@H]3CCCNC3)nc12` [Compound I-3, (S)—N-(7-(8-ethyl-2-(piperidin-3-ylamino)quinazolin-6-yl)pyrrolo[2,1-f][1,2,4]triazin-4-yl)cyclohexanesulfonamide] here?
**A.** < 0.1 µM

**Q.** And the IC50 (hIRE1a)?
**A.** < 1 µM

**Q.** For `CCc1cc(-c2ccc3c(NS(=O)(=O)c4ccccc4Cl)ncnn23)cc2cnc(N[C@H]3CCCC[C@@H]3O)nc12` [Compound I-4, 2-chloro-N-(7-(8-ethyl-2-(((1S,2S)-2-hydroxycyclohexyl)amino)quinazolin-6-yl)pyrrolo[2,1-f][1,2,4]triazin-4-yl)benzenesulfonamide], which IC50 [1] is on record?
**A.** 0.1 to 1 µM

**Q.** What about the IC50 (hIRE1a) of the same molecule?
**A.** > 10 µM

**Q.** How did the IC50 [1] turn out when `CCc1cc(-c2ccc3c(NS(=O)(=O)c4ccc(OC(F)F)cc4)ncnn23)cc2cnc(N[C@H]3CCCNC3)nc12` [Compound I-5, (S)-4-(difluoromethoxy)-N-(7-(8-ethyl-2-(piperidin-3-ylamino)quinazolin-6-yl)pyrrolo[2,1-f][1,2,4]triazin-4-yl)benzenesulfonamide] was run?
**A.** < 0.1 µM

**Q.** And the IC50 (hIRE1a)?
**A.** 1 to 10 µM

**Q.** What does the source list for `CCc1cc(-c2cnc3c(NS(=O)(=O)c4ccccc4Cl)nccn23)cc2cnc(N[C@H]3CCCNC3)nc12` [Compound I-6, (S)-2-chloro-N-(3-(8-ethyl-2-(piperidin-3-ylamino)quinazolin-6-yl)imidazo[1,2-a]pyrazin-8-yl)benzenesulfonamide]?
**A.** IC50 [1]: < 0.1 µM; IC50 (hIRE1a): < 1 µM

**Q.** With `CCc1cc(-c2ccc3c(NS(=O)(=O)Cc4ccccc4)ncnn23)cc2cnc(N[C@H]3CCCNC3)nc12` [Compound I-7, (S)—N-(7-(8-ethyl-2-(piperidin-3-ylamino)quinazolin-6-yl)pyrrolo[2,1-f][1,2,4]triazin-4-yl)-1-phenylmethanesulfonamide] as the molecule, how does the IC50 [1] read?
**A.** < 0.1 µM

**Q.** And the IC50 (hIRE1a)?
**A.** < 1 µM

**Q.** How did the IC50 [1] turn out when `CCc1cc(-c2ccc3c(NS(=O)(=O)c4ccccc4Cl)ncnn23)cc2cnc(N[C@H]3CCCC[C@H]3O)nc12` [Compound I-10, 2-chloro-N-(7-(8-ethyl-2-(((1S,2R)-2-hydroxycyclohexyl)amino)quinazolin-6-yl)pyrrolo[2,1-f][1,2,4]triazin-4-yl)benzenesulfonamide] was run?
**A.** > 1 µM

**Q.** Which IC50 [1] does the source give for `CCc1cc(-c2ccc3c(NS(=O)(=O)c4ccccc4Cl)ncnn23)cc2cnc(N[C@H]3CCCC[C@@H]3N)nc12` [Compound I-13, N-(7-(2-(((1S,2S)-2-aminocyclohexyl)amino)-8-ethylquinazolin-6-yl)pyrrolo[2,1-f][1,2,4]triazin-4-yl)-2-chlorobenzenesulfonamide] here?
**A.** > 1 µM

**Q.** For `CCc1cc(-c2ccc3c(NS(=O)(=O)c4ccc(C(F)(F)F)cc4Cl)ncnn23)cc2cnc(N[C@H]3CCCNC3)nc12` [Compound I-34, (S)-2-chloro-N-(7-(8-ethyl-2-(piperidin-3-ylamino)quinazolin-6-yl)pyrrolo[2,1-f][1,2,4]triazin-4-yl)-4-(trifluoromethyl)benzenesulfonamide], which IC50 [1] is on record?
**A.** > 1 µM
